In patent US20250145642A1, “BICYCLIC HETEROARENES AND METHODS OF THEIR USE” (Kineta, Inc., priority 2021, published 2025) one finds IC50 data, which are given here for 27 compounds.

Structures can show the parent of a compound that is named as a salt. Where only a bound is given, the exact number is not on record here.

The target in this assay is full-length human PIKFYVE (N-terminal GST-fusion) (Homo sapiens (Human), UniProt Q9Y2I7, L932S/Q1183K/Q995L/S1033A/S696N/T998S). Put plainly: PIKfyve biochemical assay (ADP-Glo Kinase assay, Carna Biosciences). As to conditions: ADP-Glo, full-length human GST-PIKFYVE, 10 μM to 3 nM; read-out: hPIKfyve IC50.
Chain of full-length human PIKFYVE (N-terminal GST-fusion) (Q9Y2I7 whole entry S696N/L932S/Q995L/T998S/S1033A/Q1183K, the tested form may be a part): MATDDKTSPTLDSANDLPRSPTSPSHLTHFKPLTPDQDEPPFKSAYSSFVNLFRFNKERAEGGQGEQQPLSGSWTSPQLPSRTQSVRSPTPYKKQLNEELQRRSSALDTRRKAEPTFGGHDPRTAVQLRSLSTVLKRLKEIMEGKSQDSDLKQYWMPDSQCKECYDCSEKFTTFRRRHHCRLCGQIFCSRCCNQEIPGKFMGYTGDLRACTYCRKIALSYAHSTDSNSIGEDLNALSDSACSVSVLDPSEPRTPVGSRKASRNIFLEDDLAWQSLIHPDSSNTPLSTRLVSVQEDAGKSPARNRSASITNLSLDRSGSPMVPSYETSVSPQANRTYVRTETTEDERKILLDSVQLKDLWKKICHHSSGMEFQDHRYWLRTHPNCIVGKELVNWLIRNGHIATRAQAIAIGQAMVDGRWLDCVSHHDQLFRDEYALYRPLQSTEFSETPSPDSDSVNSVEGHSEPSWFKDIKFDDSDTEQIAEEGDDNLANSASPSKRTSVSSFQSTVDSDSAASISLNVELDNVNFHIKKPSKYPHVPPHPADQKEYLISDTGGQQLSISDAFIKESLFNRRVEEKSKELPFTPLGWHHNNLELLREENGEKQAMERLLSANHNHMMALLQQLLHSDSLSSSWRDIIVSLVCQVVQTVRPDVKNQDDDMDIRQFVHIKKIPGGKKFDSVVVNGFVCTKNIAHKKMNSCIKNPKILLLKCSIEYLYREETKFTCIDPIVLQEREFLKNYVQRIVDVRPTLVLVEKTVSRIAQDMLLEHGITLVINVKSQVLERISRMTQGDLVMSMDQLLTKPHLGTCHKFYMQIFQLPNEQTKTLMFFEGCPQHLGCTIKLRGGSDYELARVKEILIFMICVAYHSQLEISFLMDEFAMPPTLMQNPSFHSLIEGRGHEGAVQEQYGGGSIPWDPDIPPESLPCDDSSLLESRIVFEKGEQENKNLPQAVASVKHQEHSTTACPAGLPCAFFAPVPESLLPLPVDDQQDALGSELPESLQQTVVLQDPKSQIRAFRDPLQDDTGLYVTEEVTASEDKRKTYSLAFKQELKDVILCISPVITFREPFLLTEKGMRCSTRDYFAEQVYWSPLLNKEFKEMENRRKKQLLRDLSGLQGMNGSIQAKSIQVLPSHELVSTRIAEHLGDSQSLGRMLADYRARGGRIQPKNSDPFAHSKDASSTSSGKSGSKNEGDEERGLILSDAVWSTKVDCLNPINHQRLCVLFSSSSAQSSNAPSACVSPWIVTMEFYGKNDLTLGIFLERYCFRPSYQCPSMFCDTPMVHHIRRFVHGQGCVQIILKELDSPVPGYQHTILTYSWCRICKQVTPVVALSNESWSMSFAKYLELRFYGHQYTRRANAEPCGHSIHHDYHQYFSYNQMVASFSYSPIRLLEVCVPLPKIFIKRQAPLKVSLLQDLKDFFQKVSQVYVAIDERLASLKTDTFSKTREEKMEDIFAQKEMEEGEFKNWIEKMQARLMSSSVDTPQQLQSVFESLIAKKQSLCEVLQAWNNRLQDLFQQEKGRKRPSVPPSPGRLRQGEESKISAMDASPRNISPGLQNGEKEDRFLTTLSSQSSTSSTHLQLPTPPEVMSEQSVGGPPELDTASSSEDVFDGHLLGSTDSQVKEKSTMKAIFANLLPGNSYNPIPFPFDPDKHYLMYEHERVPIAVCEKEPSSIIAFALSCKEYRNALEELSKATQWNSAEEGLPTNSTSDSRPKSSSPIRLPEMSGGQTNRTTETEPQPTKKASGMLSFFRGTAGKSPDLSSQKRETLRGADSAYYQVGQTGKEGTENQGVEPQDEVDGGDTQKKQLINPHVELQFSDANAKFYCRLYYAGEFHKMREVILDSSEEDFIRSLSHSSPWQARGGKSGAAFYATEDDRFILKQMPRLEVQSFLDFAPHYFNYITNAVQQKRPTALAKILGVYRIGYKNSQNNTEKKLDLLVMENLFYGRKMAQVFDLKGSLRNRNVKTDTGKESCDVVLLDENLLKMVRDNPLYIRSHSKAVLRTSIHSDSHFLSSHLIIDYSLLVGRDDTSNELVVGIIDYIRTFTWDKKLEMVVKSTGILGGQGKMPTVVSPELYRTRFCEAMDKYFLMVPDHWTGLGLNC
From the text: (§1) PIKfyve Biochemical Assay. The biochemical PIKfyve inhibition assays were run by Carna Biosciences according to proprietary methodology based on the Promega ADP-Glo™ Kinase assay. A full-length human PIKFYVE [1-2098(end) amino acids and S696N, L932S, Q995L, T998S, S1033A and Q1183K of the protein having the sequence set forth in NCBI Reference Sequence No. NP_055855.2] was expressed as N-terminal GST-fusion protein (265 kDa) using baculovirus expression system. GST-PIKFYVE was purified by using glutathione sepharose chromatography and used in an ADP-Glo™ Kinase assay (Promega). Reactions were set up by adding the test compound solution, substrate solution, ATP solution and kinase solution, each at 4× final concentrations. Reactions were prepared with assay buffer (50 mM MOPS, 1 mM DTT, pH7.2), mixed, and incubated in black 384 well polystyrene plates for 1 hour at room temperature. ADP-Glo™ reagent was then added for 40 minutes, followed by kinase detection reagent for an additional 40 minutes. The kinase activity was evaluated by detecting relative light units on a luminescence plate reader. Samples were run in duplicate from 10 μM to 3 nM. […] IC50 values were calculated from concentration vs % inhibition curves by fitting to a four-parameter logistic curve.
as §1, with “The” for “PIKfyve Biochemical Assay. The”, “accession number” for “the protein having the sequence set forth in NCBI Reference Sequence No.”, “curve. […]” for “curve.”
In general terms: In ADP-Glo the light output rises with the ADP produced.
`c1cc(-c2nc(N3CCOCC3)nc3c(-c4nccc(C5CC5)n4)c[nH]c23)ccn1` [Compound 138, 4-(7-(4-cyclopropylpyrimidin-2-yl)-4-(pyridin-4-yl)-5H-pyrrolo[3,2-d]pyrimidin-2-yl)morpholine]: the 50% inhibitory concentration (IC50) (as a rule, the midpoint of a concentration-inhibition curve) was in the range of 0.1 to 1 µM.

Take `c1ccc(N2CCc3c(Oc4ccncc4)nc(N4CCOCC4)nc32)cc1` [Compound 54, 4-(7-phenyl-4-(pyridin-4-yloxy)-6,7-dihydro-5H-pyrrolo[2,3-d]pyrimidin-2-yl)morpholine]: the IC50 fell in the range of 0.01 to 0.1 µM. In the case of `c1ccc(N2CCc3c(-c4ccncc4)nc(N4CCOCC4)nc32)cc1` [Compound 92, 4-(7-phenyl-4-(pyridin-4-yl)-6,7-dihydro-5H-pyrrolo[2,3-d]pyrimidin-2-yl)morpholine], the IC50 lay within 0.01 to 0.1 µM.

Turning to `CN1CCC(N2CCc3c(OCc4cccnc4)nc(N4CCOCC4)nc32)CC1` [Compound 42, 4-(7-(1-methylpiperidin-4-yl)-4-(pyridin-3-ylmethoxy)-6,7-dihydro-5H-pyrrolo[2,3-d]pyrimidin-2-yl)morpholine], the IC50 is more than 10 µM. In the case of `Cc1cccc(N2C(=O)Cc3c(OCc4cccnc4)nc(N4CCOCC4)nc32)c1` [Compound 129, 2-morpholino-4-(pyridin-3-ylmethoxy)-7-m-tolyl-5H-pyrrolo[2,3-d]pyrimidin-6(7H)-one], the IC50 lay in the range of 0.1 to 1 µM.

On to `CN1CCCC(CCOc2nc(N3CCOCC3)nc3c2CCN3c2cccnc2)C1` (stereo not drawn) [Compound 11, 4-(4-(2-(1-methylpiperidin-3-yl)ethoxy)-7-(pyridin-3-yl)-6,7-dihydro-5H-pyrrolo[2,3-d]pyrimidin-2-yl)morpholine], for which the concentration for half-maximal inhibition (IC50) is 0.01 to 0.1 µM. Consider `CN1CCn2ncc(-c3c[nH]c4c(-c5ccncc5)nc(N5CCOCC5)nc34)c2C1` [Compound 146, 4-(7-(5-methyl-4,5,6,7-tetrahydropyrazolo[1,5-a]pyrazin-3-yl)-4-(pyridin-4-yl)-5H-pyrrolo[3,2-d]pyrimidin-2-yl)morpholine], for which the 50% inhibitory concentration (IC50) lay in the range of 0.1 to 1 µM. As for `c1ccc(-c2nccc(-c3nc(N4CCOCC4)nc4c3CCN4c3cccnc3)n2)cc1` [Compound 124, 4-(4-(2-phenylpyrimidin-4-yl)-7-(pyridin-3-yl)-6,7-dihydro-5H-pyrrolo[2,3-d]pyrimidin-2-yl)morpholine hydrochloride], the IC50 is 0.01 to 0.1 µM. Then `Fc1cccc(N2CCc3c(-c4ccoc4)nc(N4CCOCC4)nc32)c1` [Compound 93, 4-(7-(3-fluorophenyl)-4-(furan-3-yl)-6,7-dihydro-5H-pyrrolo[2,3-d]pyrimidin-2-yl)morpholine], with 0.01 to 0.1 µM; and `c1ccc(N2CCc3c(OCc4cncnc4)nc(N4CCOCC4)nc32)cc1` [Compound 14, 4-(7-phenyl-4-(pyrimidin-5-ylmethoxy)-6,7-dihydro-5H-pyrrolo[2,3-d]pyrimidin-2-yl)morpholine], with 0.01 to 0.1 µM; and `CC(C)(O)COc1nc(N2CCOCC2)nc2c1CCN2c1cccnc1` [Compound 19, 2-methyl-1-(2-morpholino-7-(pyridin-3-yl)-6,7-dihydro-5H-pyrrolo[2,3-d]pyrimidin-4-yloxy)propan-2-ol], with 0.1 to 1 µM. The value for `c1ccc(-c2nccc(N3CCc4c(Oc5cccnc5)nc(N5CCOCC5)nc43)n2)cc1` [Compound 74, 4-(7-(2-phenylpyrimidin-4-yl)-4-(pyridin-3-yloxy)-6,7-dihydro-5H-pyrrolo[2,3-d]pyrimidin-2-yl)morpholine] was 1 to 10 µM.

`OCC(O)COc1nc(N2CCOCC2)nc2c1CCN2c1ccccc1` (stereo not drawn) [Compound 43, 3-((2-morpholino-7-phenyl-6,7-dihydro-6H-pyrrolo[2,3-d]pyrimidin-4-yl)oxy)propane-1,2-diol]: the IC50 fell in the range of 0.1 to 1 µM. Regarding `c1cc(-c2c[nH]c3c(OCc4cccnn4)nc(N4CCOCC4)nc23)cc(-n2cccn2)c1` [Compound 150, 4-(7-(3-(1H-pyrazol-1-yl)phenyl)-4-(pyridazin-3-ylmethoxy)-6H-pyrrolo[3,2-d]pyrimidin-2-yl)morpholine], the IC50 was in the range of 0.01 to 0.1 µM. Regarding `c1ccc(-n2ccc(N3CCc4c(Oc5cccnc5)nc(N5CCOCC5)nc43)n2)cc1` [Compound 70, 4-(7-(1-phenyl-1H-pyrazol-3-yl)-4-(pyridin-3-yloxy)-6,7-dihydro-5H-pyrrolo[2,3-d]pyrimidin-2-yl)morpholine], the IC50 was in the range of 1 to 10 µM. On to `c1cc(-c2nc(N3CCOCC3)nc3c(-c4ccncn4)c[nH]c23)ccn1` [Compound 137, 4-(4-(pyridin-4-yl)-7-(pyrimidin-4-yl)-6H-pyrrolo[3,2-d]pyrimidin-2-yl)morpholine], for which the IC50 lay in the range of 0.01 to 0.1 µM. As for `c1cc(-c2nc(N3CCOCC3)nc3c(-c4cnn(C5CC5)c4)c[nH]c23)ccn1` [Compound 140, 4-(7-(1-cyclopropyl-1H-pyrazol-4-yl)-4-(pyridin-4-yl)-5H-pyrrolo[3,2-d]pyrimidin-2-yl)morpholine], the IC50 was 0.01 to 0.1 µM. In the case of `c1ccc(N2CCc3c(Oc4cccnc4)nc(N4CCOCC4)nc32)cc1` [Compound 53, 4-(7-phenyl-4-(pyridin-3-yloxy)-6,7-dihydro-5H-pyrrolo[2,3-d]pyrimidin-2-yl)morpholine], the IC50 fell in the range of 0.01 to 0.1 µM. `c1cncc(N2CCc3c(N4CCN5CCOCC5C4)nc(N4CCOCC4)nc32)c1` (stereo not drawn) [Compound 79, 8-(2-morpholino-7-(pyridin-3-yl)-6,7-dihydro-5H-pyrrolo[2,3-d]pyrimidin-4-yl)octahydropyrazino[2,1-c][1,4]oxazine]: the IC50 fell in the range of 1 to 10 µM. Then `c1cncc(-c2nc(N3CCOCC3)nc3c2CCN3c2cccnc2)c1` [Compound 106, 4-(4,7-di(pyridin-3-yl)-6,7-dihydro-5H-pyrrolo[2,3-d]pyrimidin-2-yl)morpholine], with 0.01 to 0.1 µM. The value for `CN1CC(COc2nc(N3CCOCC3)nc3c2CCN3c2cccnc2)C1` [Compound 39, 4-(4-((1-methylazetidin-3-yl)methoxy)-7-(pyridin-3-yl)-6,7-dihydro-5H-pyrrolo[2,3-d]pyrimidin-2-yl)morpholine] was 1 to 10 µM; that for `c1cc(N2CCc3c(-c4ccoc4)nc(N4CCOCC4)nc32)cnn1` [Compound 96, 4-(4-(furan-3-yl)-7-(pyridazin-4-yl)-6,7-dihydro-5H-pyrrolo[2,3-d]pyrimidin-2-yl)morpholine] was 0.01 to 0.1 µM; that for `N#Cc1ccc(N2CCc3c(OCc4cccnc4)nc(N4CCOCC4)nc32)cc1` [Compound 7, 4-(2-morpholino-4-(pyridin-3-ylmethoxy)-5H-pyrrolo[2,3-d]pyrimidin-7(6H)-yl)benzonitrile] was 0.01 to 0.1 µM. The value for `CN1CCCC(COc2nc(N3CCOCC3)nc3c2CCN3c2ccccc2)C1` (stereo not drawn) [Compound 28, 4-(4-((1-methylpiperidin-3-yl)methoxy)-7-phenyl-6,7-dihydro-5H-pyrrolo[2,3-d]pyrimidin-2-yl)morpholine.formate] was 0.1 to 1 µM.

Consider `Cc1cccc(-c2ccn(-c3nc(N4CCOCC4)nc4c3CCN4c3cccnc3)n2)c1` [Compound 83, 4-(7-(pyridin-3-yl)-4-(3-(m-tolyl)-1H-pyrazol-1-yl)-6,7-dihydro-6H-pyrrolo[2,3-d]pyrimidin-2-yl)morpholine], for which the IC50 was in the range of 0.01 to 0.1 µM. As to `c1ccc(N2CCc3c(OCC4COC4)nc(N4CCOCC4)nc32)cc1` [Compound 20, 4-(4-(oxetan-3-ylmethoxy)-7-phenyl-6,7-dihydro-5H-pyrrolo[2,3-d]pyrimidin-2-yl)morpholine], the IC50 lay in the range of 0.01 to 0.1 µM. In the case of `c1ccc(Oc2nc(N3CCOCC3)nc3c2CCN3c2cccnc2)nc1` [Compound 58], the 50% inhibitory concentration (IC50) was 0.1 to 1 µM.
